Measured values published in publication PMC5778758, “Functional characterization of oligopeptide transporter 1 of dairy cows” (Journal of Animal Science and Biotechnology, 2018).
Peptide text beside a SMILES is read from it.

What was measured:
bPepT1 [1] = molecular target: T1, bPepT1 (Bos taurus, UniProt A5D7E5); assay: Inhibition of [3H]-Gly-Sar uptake in bPepT1-transfected CHO cells; type: cell-based, bovine (dairy cows); conditions: for IC50: read-out: IC50 (inhibition of [3H]-Gly-Sar uptake), Bovine
T1 construct: expressed in transfected cells; host or cells: CHO cells, transient transfection with pcDNA3.1-bPepT1
T1 sequence (A5D7E5 1-707): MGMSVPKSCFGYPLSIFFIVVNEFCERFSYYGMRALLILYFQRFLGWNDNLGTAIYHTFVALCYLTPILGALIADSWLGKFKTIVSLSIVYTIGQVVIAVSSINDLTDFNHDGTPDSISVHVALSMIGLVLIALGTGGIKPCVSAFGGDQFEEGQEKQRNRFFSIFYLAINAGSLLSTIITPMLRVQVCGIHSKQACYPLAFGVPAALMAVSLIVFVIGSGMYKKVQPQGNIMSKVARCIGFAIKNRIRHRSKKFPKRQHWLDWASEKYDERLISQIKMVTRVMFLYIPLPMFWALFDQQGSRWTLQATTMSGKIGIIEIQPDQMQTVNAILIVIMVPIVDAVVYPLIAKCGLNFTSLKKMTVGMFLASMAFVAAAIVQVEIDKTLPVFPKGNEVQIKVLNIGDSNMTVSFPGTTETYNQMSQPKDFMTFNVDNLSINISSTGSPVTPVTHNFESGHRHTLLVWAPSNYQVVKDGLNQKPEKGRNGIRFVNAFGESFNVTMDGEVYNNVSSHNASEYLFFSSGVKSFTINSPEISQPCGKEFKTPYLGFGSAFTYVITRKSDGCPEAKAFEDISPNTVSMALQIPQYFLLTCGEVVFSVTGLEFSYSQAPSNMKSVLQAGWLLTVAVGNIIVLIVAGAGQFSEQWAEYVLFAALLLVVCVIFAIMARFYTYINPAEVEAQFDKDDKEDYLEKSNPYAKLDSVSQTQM
Description: (§1) The CHO cells were cultured in F12 Ham’s medium that contained 10% FBS. All cell cultures were maintained at 37 °C and 5% CO2 in a humidified atmosphere. The culture medium was changed every other day. One day before transfection, the CHO cells were passaged and plated onto 12-well plates at a density of 5.0 × 10^4 cells/well. The bPepT1 cDNA [19] was cloned into the pcDNA3.1 expression vector (Invitrogen, Carlsbad, USA). When the CHO cells were cultured to approximately 70–90% confluence, the cells were transfected with the pcDNA3.1-bPepT1 vector or the pcDNA3.1 vector as a control. For each well, 1 μg of DNA was mixed with 2 μL of P3000™ and 1 μL of Lipofectamine 3000 (Invitrogen, Carlsbad, USA) in 50 μL of OPTI-MEM and incubated at room temperature for 5 min. Then, the DNA-lipid complex was added into each well and the cells were transfected for 24 h.
(§2) The transport activity of bPepT1 was determined using [^3H]-Gly-Sar (3.7 × 10^4 Bq/mL), a well-known hydrolysis-resistant peptide substrate, in transiently transfected CHO cells. The transfected cells were washed three times with uptake buffer at pH 6.0 which contained 140 mmol/L NaCl, 5.4 mmol/L KCl, 0.8 mmol/L MgSO4, 1.8 mmol/L CaCl2, 5 mmol/L glucose, and 25 mmol/L MES. Then, the cells were preincubated with the buffer for 30 min at 37 °C.
For the transport time study, the transfected CHO cells were incubated with 0.02 mmol/L of [^3H]-Gly-Sar (3.7 × 10^4 Bq/mL) for various times (1, 5, 10, 20, 40, and 60 min). For the pH dependency study, the pH of the uptake buffer was adjusted to various pH (5.0, 5.5, 6.0, 6.5, 7.0, and 7.5) with HEPES/Tris or MES/Tris. For the transport kinetic study, Gly-Sar was prepared at various concentrations (0.02–10 mmol/L) with 3.7 × 10^4 Bq/mL [^3H]-Gly-Sar. For the inhibition study, 15 small peptides that contained essential AA at five concentrations (0.001–10 mmol/L) were added into the uptake buffer with [^3H]-Gly-Sar, and they were incubated with the CHO cells for 5 min. Then, the concentration of unlabeled peptide that inhibited 50% of [^3H]-Gly-Sar uptake (IC50) was calculated using PRISM software (GraphPad, San Diego, CA, USA). Uptake was stopped by washing with ice-cold uptake buffer. The cells were lysed by adding 0.5 mL lysis buffer that contained 1% Triton X-100, followed by incubation at 37 °C for 60 min. The radioactivity of the cell lysate was measured using liquid scintillation counting (LSC, Wallac1414, Wallac Co., Turku, Finland). The total protein of the cell lysate was determined using a BCA Protein Assay Kit (Beyotime). The uptake was expressed as nmol/(mg protein • 5 min).

chicken PepT1 [2] = conditions: CHO cells transfected with chicken PepT1 cDNA; ref Chen et al. [15]; cited from earlier work
From the text: Table 1 Kinetic parameters of CHO cells transfected with bovine, sheep, pig, and chicken PepT1 cDNA | column: IC50, mmol/L / Chicken^e

sheep PepT1 [3] = conditions: CHO cells transfected with sheep PepT1 cDNA; ref Chen et al. [14]; cited from earlier work
From the text: Table 1 Kinetic parameters of CHO cells transfected with bovine, sheep, pig, and chicken PepT1 cDNA | column: IC50, mmol/L / Sheep^c

pig PepT1 = conditions: CHO cells transfected with pig PepT1 cDNA; CBD = cannot be determined; ref Klang et al. [17]; cited from earlier work
From the text: Table 1 Kinetic parameters of CHO cells transfected with bovine, sheep, pig, and chicken PepT1 cDNA | column: IC50, mmol/L / Pig^d

bPepT1 [4] = molecular target: T1, bPepT1; assay: Time course of [3H]-Gly-Sar uptake in transfected CHO cells; type: cell-based, bovine (dairy cows); conditions: 0.02 mmol/L; 1–60 min; 24 h after transfection with bPepT1; n = 5
Description: as §1, with “Then, the DNA-lipid complex was added into each well and the cells were transfected for 24 h.” left out
(§3) The transport activity of bPepT1 was determined using [^3H]-Gly-Sar (3.7 × 10^4 Bq/mL), a well-known hydrolysis-resistant peptide substrate, in transiently transfected CHO cells. […]
(§4) For the transport time study, the transfected CHO cells were incubated with 0.02 mmol/L of [^3H]-Gly-Sar (3.7 × 10^4 Bq/mL) for various times (1, 5, 10, 20, 40, and 60 min). […] The radioactivity of the cell lysate was measured using liquid scintillation counting (LSC, Wallac1414, Wallac Co., Turku, Finland). The total protein of the cell lysate was determined using a BCA Protein Assay Kit (Beyotime). The uptake was expressed as nmol/(mg protein • 5 min).

bPepT1 [5] = molecular target: T1, bPepT1; assay: pH dependency of Gly-Sar uptake in bPepT1-transfected CHO cells; type: cell-based, bovine (dairy cows); conditions: 0.02 mmol/L [3H]-Gly-Sar; pH 5.0–7.5; 5 min; n = 4; P < 0.05
Description: as §1, with “Then, the DNA-lipid complex was added into each well and the cells were transfected for 24 h.” left out
as §3, §4

chicken PepT1 [6] = conditions: ref [15], read-out: Km for Gly-Sar, chickens; cited from earlier work
From the text: (§5) These features of bPepT1 met the requirement for transporting a large number of various small peptides. The str ...

sheep PepT1 [7] = conditions: ref [14], read-out: Km for Gly-Sar, sheep; cited from earlier work
From the text: as §5

CHO cells = assay: [3H]-Gly-Sar uptake in CHO cells transfected with pcDNA3.1 control vector; type: cell-based, Chinese hamster; conditions: 0.02 mmol/L, 1–60 min, n = 5
Description: as §1, with “Then, the DNA-lipid complex was added into each well and the cells were transfected for 24 h.” left out
as §3, §4

bPepT1 [8] = molecular target: T1, bPepT1; assay: Gly-Sar transport kinetics in bPepT1-transfected CHO cells; type: cell-based, bovine (dairy cows); conditions: 5 min, n = 6
Description: as §1, §2
For the transport time study, the transfected CHO cells were incubated with 0.02 mmol/L of [^3H]-Gly-Sar (3.7 × 10^4 Bq/mL) for various times (1, 5, 10, 20, 40, and 60 min). For the pH dependency study, the pH of the uptake buffer was adjusted to various pH (5.0, 5.5, 6.0, 6.5, 7.0, and 7.5) with HEPES/Tris or MES/Tris. For the transport kinetic study, Gly-Sar was prepared at various concentrations (0.02–10 mmol/L) with 3.7 × 10^4 Bq/mL [^3H]-Gly-Sar. […] The radioactivity of the cell lysate was measured using liquid scintillation counting (LSC, Wallac1414, Wallac Co., Turku, Finland). The total protein of the cell lysate was determined using a BCA Protein Assay Kit (Beyotime). The uptake was expressed as nmol/(mg protein • 5 min).

[9] = 0.02 mmol/L [3H]-Gly-Sar (3.7 × 10^4 Bq/mL), unlabeled peptide 0.001–10 mmol/L, pH 6.0, 5 min, liquid scintillation counting, n = 4 (Fig. 6), CBD = cannot be determined

Row | Molecule | IC50 (bPepT1 [1]; [9]) | further results
1 | NCCCC[C@H](NC(=O)CN)C(=O)O [Gly-Lys] (H-Gly-Lys-OH) | 78 µM | –
2 | NCC(=O)O [Gly] | – | Inhibition of [3H]-Gly-Sar uptake (in words) (bPepT1 [1]; 0.02 mmol/L [3H]-Gly-Sar, pH 6.0, 5 min): not inhibited
3 | CC(C)C[C@H](N)C(=O)NCC(=O)NCC(=O)O [Leu-Gly-Gly] (H-Leu-Gly-Gly-OH) | 2070 µM | –
4 | NCCCC[C@H](NC(=O)[C@@H](N)CCCCN)C(=O)O [Lys-Lys] | 9650 µM | –
5 | NCCCC[C@H](N)C(=O)N[C@@H](Cc1ccccc1)C(=O)O [Lys-Phe] | 90 µM | –
6 | NCCCC[C@H](NC(=O)[C@H](Cc1c[nH]c2ccccc12)NC(=O)[C@@H](N)CCCCN)C(=O)O [Lys-Trp-Lys] (H-Lys-Trp-Lys-OH; N-terminus and C-terminus assumed) | > 2070 µM | IC50 (chicken PepT1 [2]): 5900 µM; IC50 (sheep PepT1 [3]): 3730 µM; IC50 (inhibition of [3H]-Gly-Sar uptake), Bovine (bPepT1 [1]; [9]): CBD; Favorability as substrate / affinity for bPepT1 (in words) (bPepT1 [1]; judged from IC50 values): less favorable substrates for bPepT1; IC50 (pig PepT1): 2200 µM
7 | CSCC[C@H](NC(=O)[C@H](CCSC)NC(=O)CNC(=O)[C@@H](N)CCSC)C(=O)O [Met-Gly-Met-Met] (H-MGMM-OH) | 6040 µM | –
8 | CSCC[C@H](N)C(=O)N[C@@H](CC(C)C)C(=O)O [Met-Leu] (H-Met-Leu-OH) | 80 µM | –
9 | CSCC[C@H](NC(=O)[C@@H](N)CCSC)C(=O)O [Met-Met] (H-Met-Met-OH) | 96 µM | –
10 | glycyl-sarcosine [Gly-Sar] | – | Time course of [3H]-Gly-Sar uptake (bPepT1 [4]): increased rapidly and linearly in the first 10 min and reached a plateau subsequently; pH dependency of [3H]-Gly-Sar uptake (bPepT1 [5]): pH-dependent and greater at pH 6.5 and 7.0 than at pH 5.5 and 6.0 which was greater than at pH 5.0 and 7.5; Km (chicken PepT1 [6]): 2600 ± 300 µM; Km (sheep PepT1 [7]): 1000 ± 100 µM; [3H]-Gly-Sar uptake in control-vector cells (CHO cells): only marginal, and it was much lower than in CHO cells that were transfected with the bPepT1 expression vector; Km (bPepT1 [8]; Gly-Sar 0.02–10 mmol/L with 3.7 × 10^4 Bq/mL [3H]-Gly-Sar, 37 °C preincubation, Michaelis–Menten, mean ± SEM): 940 ± 60 µM; maximum velocity (Vmax) (bPepT1 [8]; Gly-Sar 0.02–10 mmol/L with 3.7 × 10^4 Bq/mL [3H]-Gly-Sar, Michaelis–Menten, mean ± SEM): 20.80 ± 1.74 nmol/(mg protein • 5 min); Gly-Sar concentration at which transport was saturated (bPepT1 [8]; Gly-Sar 0.02–10 mmol/L): 5 mmol/L

Now from value to molecule, other results behind:

Row | IC50 (bPepT1 [1]; [9]) | Molecule | further results
11 | 32 µM | CSCC[C@H](NC(=O)CN)C(=O)O [Gly-Met] | –
12 | 32 µM | CSCC[C@H](NC(=O)[C@@H](N)CCCCN)C(=O)O [Lys-Met] | –
13 | 23 µM | CSCC[C@H](N)C(=O)N[C@@H](CCC(=O)O)C(=O)O [Met-Glu] (H-Met-Glu-OH) | –
14 | 58 µM | CSCC[C@H](N)C(=O)NCC(=O)O [Met-Gly] (H-Met-Gly-OH) | –
15 | 50 µM | CSCC[C@H](N)C(=O)N[C@@H](CC(C)C)C(=O)N[C@@H](Cc1ccccc1)C(=O)O [Met-Leu-Phe] | –
16 | 20 µM | CSCC[C@H](N)C(=O)N[C@@H](CCCCN)C(=O)O [Met-Lys] (H-Met-Lys-OH) | –
17 | 14 µM | N[C@@H](Cc1c[nH]c2ccccc12)C(=O)N[C@@H](Cc1ccccc1)C(=O)O [Trp-Phe] (H-Trp-Phe-OH) | –
